Here are results for 4 compounds from PubChem BioAssay (NCI).

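Method: 48-hour compound exposure of cells in 96-well plates, five concentrations, linear interpolation of endpoints. TGI is the concentration that stops growth completely.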 Where only a bound is given, the exact number is not on record here.

In the first assay the test system is SF-268 CNS. Briefly: NCI tumour cell line growth inhibition, 48 h.
In the case of `COc1ccc(C(OCC2OC(n3cc(C)c(=O)[nH]c3=O)CC2n2cc(Cn3cc(I)c(=O)[nH]c3=O)nn2)(c2ccccc2)c2ccccc2)cc1` (stereo not given), the TGI is over 100 µM.

Regarding `CC(=O)NNc1nc(C)c(C(=O)NNC(=O)C(=O)Nc2ccc(Cl)cc2)s1`, the TGI is over 100 µM.

In the case of `COc1ccc2c3c1C(=O)CCCC3CO2` (stereo not given), the TGI was over 100 µM.

In a further assay the test system is MCF7 breast. Briefly: NCI tumour cell line growth inhibition, 48 h.
For `O=C1/C(=C/c2ccc(O)cc2)CC/C1=C\c1ccc(O)cc1`, the TGI was over 100 µM.

Compound `COc1ccc(C(OCC2OC(n3cc(C)c(=O)[nH]c3=O)CC2n2cc(Cn3cc(I)c(=O)[nH]c3=O)nn2)(c2ccccc2)c2ccccc2)cc1` (stereo not given) returned a TGI of over 100 µM.

For the next assay, the system named is MDA-N. Briefly: NCI tumour cell line growth inhibition, 48 h.
On to `O=C1/C(=C/c2ccc(O)cc2)CC/C1=C\c1ccc(O)cc1`, for which the TGI was over 100 µM.

As to `COc1ccc(C(OCC2OC(n3cc(C)c(=O)[nH]c3=O)CC2n2cc(Cn3cc(I)c(=O)[nH]c3=O)nn2)(c2ccccc2)c2ccccc2)cc1` (stereo not given), the TGI was over 100 µM.

For another assay, the system named is A498 renal. Description: NCI tumour cell line growth inhibition, 48 h.
In the case of `O=C1/C(=C/c2ccc(O)cc2)CC/C1=C\c1ccc(O)cc1`, the TGI was over 100 µM.

The compound `COc1ccc(C(OCC2OC(n3cc(C)c(=O)[nH]c3=O)CC2n2cc(Cn3cc(I)c(=O)[nH]c3=O)nn2)(c2ccccc2)c2ccccc2)cc1` (stereo not given) showed a TGI of over 100 µM.

For the compound `COc1ccc2c3c1C(=O)CCCC3CO2` (stereo not given), the TGI is over 100 µM.

In a further assay the test system is NCI-H522 lung. Briefly: NCI tumour cell line growth inhibition, 48 h.
`O=C1/C(=C/c2ccc(O)cc2)CC/C1=C\c1ccc(O)cc1` registered a TGI of over 100 µM.

`COc1ccc(C(OCC2OC(n3cc(C)c(=O)[nH]c3=O)CC2n2cc(Cn3cc(I)c(=O)[nH]c3=O)nn2)(c2ccccc2)c2ccccc2)cc1` (stereo not given): the TGI is over 100 µM.

On to `CC(=O)NNc1nc(C)c(C(=O)NNC(=O)C(=O)Nc2ccc(Cl)cc2)s1`, for which the TGI is over 100 µM.

With `COc1ccc2c3c1C(=O)CCCC3CO2` (stereo not given), the TGI is over 100 µM.

In a further assay the test system is HCT-116 colon. Briefly: NCI tumour cell line growth inhibition, 48 h.
In the case of `O=C1/C(=C/c2ccc(O)cc2)CC/C1=C\c1ccc(O)cc1`, the TGI is over 100 µM.

Consider `COc1ccc(C(OCC2OC(n3cc(C)c(=O)[nH]c3=O)CC2n2cc(Cn3cc(I)c(=O)[nH]c3=O)nn2)(c2ccccc2)c2ccccc2)cc1` (stereo not given), for which the TGI was over 100 µM.

Consider `CC(=O)NNc1nc(C)c(C(=O)NNC(=O)C(=O)Nc2ccc(Cl)cc2)s1`, for which the TGI was over 100 µM.

The subject of a further assay is XF 498 CNS. Description: NCI tumour cell line growth inhibition, 48 h.
Turning to `CC(=O)NNc1nc(C)c(C(=O)NNC(=O)C(=O)Nc2ccc(Cl)cc2)s1`, the TGI was over 100 µM.

`COc1ccc2c3c1C(=O)CCCC3CO2` (stereo not given) returned a TGI of over 100 µM.

For the next assay, the system named is HL-60(TB) leukemia. Briefly: NCI tumour cell line growth inhibition, 48 h.
The compound `O=C1/C(=C/c2ccc(O)cc2)CC/C1=C\c1ccc(O)cc1` had a TGI of 34.5 µM.

`COc1ccc(C(OCC2OC(n3cc(C)c(=O)[nH]c3=O)CC2n2cc(Cn3cc(I)c(=O)[nH]c3=O)nn2)(c2ccccc2)c2ccccc2)cc1` (stereo not given): the TGI amounted to 5.55 µM.

Regarding `CC(=O)NNc1nc(C)c(C(=O)NNC(=O)C(=O)Nc2ccc(Cl)cc2)s1`, the TGI is over 100 µM.

The compound `COc1ccc2c3c1C(=O)CCCC3CO2` (stereo not given) came in with a TGI of over 100 µM.

In a further assay the test system is MALME-3M melanoma. Description: NCI tumour cell line growth inhibition, 48 h.
Compound `O=C1/C(=C/c2ccc(O)cc2)CC/C1=C\c1ccc(O)cc1` registered a TGI of over 100 µM.

On to `COc1ccc(C(OCC2OC(n3cc(C)c(=O)[nH]c3=O)CC2n2cc(Cn3cc(I)c(=O)[nH]c3=O)nn2)(c2ccccc2)c2ccccc2)cc1` (stereo not given), for which the TGI was over 100 µM.

The compound `CC(=O)NNc1nc(C)c(C(=O)NNC(=O)C(=O)Nc2ccc(Cl)cc2)s1` displayed a TGI of over 100 µM.

The compound `COc1ccc2c3c1C(=O)CCCC3CO2` (stereo not given) displayed a TGI of over 100 µM.

A further assay has as its system SF-539 CNS. Briefly: NCI tumour cell line growth inhibition, 48 h.
In turn, `O=C1/C(=C/c2ccc(O)cc2)CC/C1=C\c1ccc(O)cc1` had a TGI of over 100 µM.

As for `COc1ccc(C(OCC2OC(n3cc(C)c(=O)[nH]c3=O)CC2n2cc(Cn3cc(I)c(=O)[nH]c3=O)nn2)(c2ccccc2)c2ccccc2)cc1` (stereo not given), the TGI was over 100 µM.

The compound `CC(=O)NNc1nc(C)c(C(=O)NNC(=O)C(=O)Nc2ccc(Cl)cc2)s1` came in with a TGI of over 100 µM.

`COc1ccc2c3c1C(=O)CCCC3CO2` (stereo not given) had a TGI of over 100 µM.

Another assay has as its system SNB-75 CNS. Description: NCI tumour cell line growth inhibition, 48 h.
The compound `O=C1/C(=C/c2ccc(O)cc2)CC/C1=C\c1ccc(O)cc1` registered a TGI of over 100 µM.

For the compound `COc1ccc(C(OCC2OC(n3cc(C)c(=O)[nH]c3=O)CC2n2cc(Cn3cc(I)c(=O)[nH]c3=O)nn2)(c2ccccc2)c2ccccc2)cc1` (stereo not given), the TGI was over 100 µM.

The compound `COc1ccc2c3c1C(=O)CCCC3CO2` (stereo not given) returned a TGI of over 100 µM.

The test system of another assay is EKVX NSCLC. Briefly: NCI tumour cell line growth inhibition, 48 h.
Consider `O=C1/C(=C/c2ccc(O)cc2)CC/C1=C\c1ccc(O)cc1`, for which the TGI was over 100 µM.

`COc1ccc(C(OCC2OC(n3cc(C)c(=O)[nH]c3=O)CC2n2cc(Cn3cc(I)c(=O)[nH]c3=O)nn2)(c2ccccc2)c2ccccc2)cc1` (stereo not given): the TGI is over 100 µM.

Compound `CC(=O)NNc1nc(C)c(C(=O)NNC(=O)C(=O)Nc2ccc(Cl)cc2)s1` had a TGI of over 100 µM.

For the next assay, the system named is DU-145 prostate. Description: NCI tumour cell line growth inhibition, 48 h.
With `O=C1/C(=C/c2ccc(O)cc2)CC/C1=C\c1ccc(O)cc1`, the TGI was over 100 µM.

`COc1ccc(C(OCC2OC(n3cc(C)c(=O)[nH]c3=O)CC2n2cc(Cn3cc(I)c(=O)[nH]c3=O)nn2)(c2ccccc2)c2ccccc2)cc1` (stereo not given): the TGI is over 100 µM.

The next assay concerns CCRF-CEM leukemia. Briefly: NCI tumour cell line growth inhibition, 48 h.
For the compound `O=C1/C(=C/c2ccc(O)cc2)CC/C1=C\c1ccc(O)cc1`, the TGI was found to be 6.74 µM.

With `COc1ccc(C(OCC2OC(n3cc(C)c(=O)[nH]c3=O)CC2n2cc(Cn3cc(I)c(=O)[nH]c3=O)nn2)(c2ccccc2)c2ccccc2)cc1` (stereo not given), the TGI was over 100 µM.

As to `CC(=O)NNc1nc(C)c(C(=O)NNC(=O)C(=O)Nc2ccc(Cl)cc2)s1`, the TGI is over 100 µM.

Consider `COc1ccc2c3c1C(=O)CCCC3CO2` (stereo not given), for which the TGI was over 100 µM.

The next assay deals with M19-MEL melanoma. Briefly: NCI tumour cell line growth inhibition, 48 h.
For the compound `CC(=O)NNc1nc(C)c(C(=O)NNC(=O)C(=O)Nc2ccc(Cl)cc2)s1`, the TGI was over 100 µM.

Compound `COc1ccc2c3c1C(=O)CCCC3CO2` (stereo not given) yielded a TGI of over 100 µM.

Another assay concerns UO-31 renal. Description: NCI tumour cell line growth inhibition, 48 h.
With `O=C1/C(=C/c2ccc(O)cc2)CC/C1=C\c1ccc(O)cc1`, the TGI was over 100 µM.

In turn, `COc1ccc(C(OCC2OC(n3cc(C)c(=O)[nH]c3=O)CC2n2cc(Cn3cc(I)c(=O)[nH]c3=O)nn2)(c2ccccc2)c2ccccc2)cc1` (stereo not given) had a TGI of over 100 µM.

In turn, `CC(=O)NNc1nc(C)c(C(=O)NNC(=O)C(=O)Nc2ccc(Cl)cc2)s1` gave a TGI of over 100 µM.

The compound `COc1ccc2c3c1C(=O)CCCC3CO2` (stereo not given) registered a TGI of over 100 µM.

The next assay concerns PC-3 prostate. Description: NCI tumour cell line growth inhibition, 48 h.
With `O=C1/C(=C/c2ccc(O)cc2)CC/C1=C\c1ccc(O)cc1`, the TGI was over 100 µM.

In turn, `COc1ccc(C(OCC2OC(n3cc(C)c(=O)[nH]c3=O)CC2n2cc(Cn3cc(I)c(=O)[nH]c3=O)nn2)(c2ccccc2)c2ccccc2)cc1` (stereo not given) displayed a TGI of over 100 µM.

A further assay concerns NCI-H226 lung. Briefly: NCI tumour cell line growth inhibition, 48 h.
In turn, `O=C1/C(=C/c2ccc(O)cc2)CC/C1=C\c1ccc(O)cc1` returned a TGI of over 100 µM.

In turn, `COc1ccc(C(OCC2OC(n3cc(C)c(=O)[nH]c3=O)CC2n2cc(Cn3cc(I)c(=O)[nH]c3=O)nn2)(c2ccccc2)c2ccccc2)cc1` (stereo not given) returned a TGI of over 100 µM.

In the case of `CC(=O)NNc1nc(C)c(C(=O)NNC(=O)C(=O)Nc2ccc(Cl)cc2)s1`, the TGI is over 100 µM.

As for `COc1ccc2c3c1C(=O)CCCC3CO2` (stereo not given), the TGI is over 100 µM.
